The record followed here is patent US8486985B2, “Selective subtype alpha 2 adrenergic agents and methods for use thereof” (Allergan, Inc., priority 2008, dated 2013).

Test [1] concerns the target T1, alpha 2B receptor (Homo sapiens, UniProt P18089).
T1 construct: expressed in transfected cells; host or cells: NIH-3T3 cells
T1 sequence (P18089 1-450): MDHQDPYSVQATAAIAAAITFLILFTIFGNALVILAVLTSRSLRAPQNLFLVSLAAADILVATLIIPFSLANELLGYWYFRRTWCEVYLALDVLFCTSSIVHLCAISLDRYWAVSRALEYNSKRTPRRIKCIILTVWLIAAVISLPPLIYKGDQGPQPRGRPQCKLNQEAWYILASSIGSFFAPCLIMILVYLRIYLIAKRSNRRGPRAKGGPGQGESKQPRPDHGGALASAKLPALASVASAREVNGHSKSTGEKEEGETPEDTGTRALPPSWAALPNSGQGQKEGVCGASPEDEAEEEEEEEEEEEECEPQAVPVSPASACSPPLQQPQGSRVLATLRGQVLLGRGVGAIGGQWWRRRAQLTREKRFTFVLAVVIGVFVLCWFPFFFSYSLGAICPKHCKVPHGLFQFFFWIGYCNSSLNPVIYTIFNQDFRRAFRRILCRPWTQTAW
The test is described as follows: RSAT (Receptor Selection and Amplification Technology) assay, alpha 2B. In kind it is cell-based. The note with it: for RSAT (rel eff) Alpha 2B: intrinsic activity: ratio of maximal effect to that of standard full agonist brimonidine. How it is done:
(§1) 76, pp. 308-311 (incorporated herein by reference) and is also described below.
(§2) The RSAT assay measures a receptor-mediated loss of contact inhibition that results in selective proliferation of receptor-containing cells in a mixed population of confluent cells. The increase in cell number is assessed with an appropriate transfected marker gene such as β-galactosidase, the activity of which can be easily measured in a 96-well format. Receptors that activate the G protein, Gq, elicit this response. Alpha 2 receptors, which normally couple to Gi, activate the RSAT response when coexpressed with a hybrid Gq protein that has a Gi receptor recognition domain, called Gq/i5.
(§3) NIH-3T3 cells are plated at a density of 2×10^6 cells in 15 cm dishes and maintained in Dulbecco's modified Eagle's medium supplemented with 10% calf serum. One day later, cells are cotransfected by calcium phosphate precipitation with mammalian expression plasmids encoding p-SV-β-galactosidase (5-10 μg), receptor (1-2 μg) and G protein (1-2 μg). 40 μg salmon sperm DNA may also be included in the transfection mixture. Fresh media is added on the following day and 1-2 days later, cells are harvested and frozen in 50 assay aliquots. Cells are thawed and 100 μl added to 100 μL aliquots of various concentrations of drugs in triplicate in 96-well dishes. Incubations continue 72-96 hr at 37° C. After washing with phosphate-buffered saline, β-galactosidase enzyme activity is determined by adding 200 μL of the chromogenic substrate (consisting of 3.5 mM o-nitrophenyl-β-D-galactopyranoside and 0.5% nonidet P-40 in phosphate buffered saline), incubating overnight at 30° C. and measuring optical density at 420 nm. The absorbance is a measure of enzyme activity, which depends on cell number and reflects a receptor-mediated cell proliferation. The efficacy or intrinsic activity is calculated as a ratio of the maximal effect of the drug to the maximal effect of a standard full agonist for each receptor subtype. Brimonidine, the chemical structure of which is shown below, is used as the standard agonist for the alpha 2B and alpha 2C receptors.

The target of test [2] is T2, alpha 2C receptor (Homo sapiens, UniProt P18825).
T2 construct: expressed in transfected cells; host or cells: NIH-3T3 cells
T2 sequence (P18825 1-462): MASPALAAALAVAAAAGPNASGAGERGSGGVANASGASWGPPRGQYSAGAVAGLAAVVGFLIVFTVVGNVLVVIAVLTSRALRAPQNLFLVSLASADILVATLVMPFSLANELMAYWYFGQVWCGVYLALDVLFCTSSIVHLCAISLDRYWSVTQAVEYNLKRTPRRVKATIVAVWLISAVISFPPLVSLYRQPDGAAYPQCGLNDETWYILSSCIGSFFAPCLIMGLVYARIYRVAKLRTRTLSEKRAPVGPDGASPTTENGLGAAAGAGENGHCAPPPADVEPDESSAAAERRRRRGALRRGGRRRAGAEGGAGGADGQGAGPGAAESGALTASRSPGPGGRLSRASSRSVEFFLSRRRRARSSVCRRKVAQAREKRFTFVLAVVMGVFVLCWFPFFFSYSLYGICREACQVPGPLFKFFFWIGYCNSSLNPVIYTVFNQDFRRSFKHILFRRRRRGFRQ
As to the kind of experiment: RSAT (Receptor Selection and Amplification Technology) assay, alpha 2C. In kind it is cell-based. The note with it: for RSAT (rel eff) Alpha 2C: intrinsic activity: ratio of maximal effect to that of standard full agonist brimonidine. As to the method:
as §1, §2, §3

The term EC50 denotes the concentration that produces a half-maximal response.

Like-named read-outs stand apart in the source and are kept apart here. A value given as a limit tells only on which side of the number the result lay.

Take `C[C@@H](NC1=NCCN1)c1cccc(Cl)c1Cl` [Compound 1, N-[1-(2,3-dichloro-phenyl)-ethyl]-4,5-dihydro-1H-imidazol-2-amine]: in test [1], the EC50 was 31 nM and the “RSAT (rel eff) Alpha 2B” value was found to be 0.68. Besides, in test [2], the response was half-maximal at 41 nM (EC50) and the “RSAT (rel eff) Alpha 2C” value came out at 0.35.
For `C[C@H](NC1=NCCN1)c1cccc(Cl)c1Cl` [Compound 2, (+)-(S)—N-[1-(2,3-dichloro-phenyl)-ethyl]-4,5-dihydro-1H-imidazol-2-amine], in test [1], the EC50 was found to be 19 nM and the “RSAT (rel eff) Alpha 2B” value is 0.63. Further, in test [2], the response was half-maximal at 63 nM (EC50) and the “RSAT (rel eff) Alpha 2C” value was determined as 0.33.
As for `CCC(NC1=NCCN1)c1cccc(Cl)c1Cl` (stereo not drawn) [Compound 3, N-[1-(2,3-dichloro-phenyl)-propyl]-4,5-dihydro-1H-imidazol-2-amine], in test [1], the EC50 amounted to 38 nM and the “RSAT (rel eff) Alpha 2B” value came to 0.82. Besides, in test [2], the EC50 turned out to be 46 nM and the “RSAT (rel eff) Alpha 2C” value amounted to 0.30.
Consider `Clc1cccc(C(CCc2ccccc2)NC2=NCCN2)c1Cl` (stereo not drawn) [Compound 4, N-[1-(2,3-dichloro-phenyl)-3-phenyl-propyl]-4,5-dihydro-1H-imidazol-2-amine], for which the EC50 was 11 nM in test [1] (NIH-3T3 cells cotransfected with receptor, Gq/i5 and beta-galactosidase, read-out: RSAT EC50 (nM) Alpha 2B); over 10000 nM in test [2] (NIH-3T3 cells cotransfected with receptor, Gq/i5 and beta-galactosidase, nd = not determinable (>10,000), read-out: RSAT EC50 (nM) Alpha 2C). Also, in test [1], the “RSAT (rel eff) Alpha 2B” value was 0.77.
